Reference: patent publication US6737383B1, “Herbicidal oxadiazolidines” (priority 1999, dated 2004)

Tests used:
[1] = tested on: bamyardgrass; test: Test B flood test barnyardgrass; type: in vivo, Echinochloa crus-galli
Method in brief: (§1)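 Read-out is a visual response score from 0 (no effect) to 10 (complete control), assigned by comparison with untreated controls. Treatment was applied at the 2-leaf stage, and plants stayed in the greenhouse for twelve to sixteen days before scoring.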

[2] = tested on: corn; test: Test B pre/postemergence corn; type: in vivo, Zea mays
Method in brief: (§2)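 Test chemicals in a non-phytotoxic solvent mixture with surfactant were sprayed preemergence onto planted seeds and postemergence onto plants 2 to 18 cm tall (1- to 4-leaf stage). After twelve to sixteen days in a greenhouse, injury was visually rated against untreated controls from 0 (no effect) to 10 (complete control).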

[3] = tested on: crabgrass; test: Test B pre/postemergence crabgrass; type: in vivo, Digitaria sanguinalis
Method in brief: as §2

[4] = tested on: bedstraw; test: Test B pre/postemergence bedstraw; type: in vivo, Galium aparine; details: Preemergence
Method in brief: as §2

[5] = tested on: wild oat; test: Test B pre/postemergence wild oat; type: in vivo, Avena fatua
Method in brief: as §2

[6] = tested on: blackgrass; test: Test B pre/postemergence blackgrass; type: in vivo, Alopecurus myosuroides
Method in brief: as §2

[7] = tested on: surinam grass; test: Test B pre/postemergence surinam grass; type: in vivo, Brachiaria decumbens
Method in brief: as §2

[8] = tested on: sugar beet; test: Test B pre/postemergence sugar beet; type: in vivo, Beta vulgaris
Method in brief: as §2

[9] = tested on: purple nutsedge; test: Test B pre/postemergence purple nutsedge; type: in vivo, Cyperus rotundus
Method in brief: as §2

[10] = tested on: rape; test: Test B pre/postemergence rape; type: in vivo, Brassica napus
Method in brief: as §2

[11] = tested on: velvetleaf; test: Test B pre/postemergence velvetleaf; type: in vivo, Abutilon theophrasti
Method in brief: as §2

[12] = tested on: cocklebur; test: Test B pre/postemergence cocklebur; type: in vivo, Xanthium strumarium
Method in brief: as §2

[13] = tested on: wheat; test: Test B pre/postemergence wheat; type: in vivo, Triticum aestivum
Method in brief: as §2

[14] = tested on: smallflower flatsedge; test: Test B flood test smallflower flatsedge; type: in vivo, Cyperus difformis
Method in brief: as §1

[15] = tested on: soybean; test: Test B pre/postemergence soybean; type: in vivo, Glycine max
Method in brief: as §2

[16] = tested on: pigweed; test: Test B pre/postemergence pigweed; type: in vivo, Amaranthus retroflexus
Method in brief: as §2

[17] = Rate 62 g/ha, flood test species, Pre-emergence, visual evaluation after twelve to sixteen days
[18] = Rate 125 g/ha, under heading Pre-emergence, flood test species, visual evaluation after twelve to sixteen days
[19] = Rate 250 g/ha, Pre-emergence, flood-test species, scale 0 to 10, 0 is no effect, 10 is complete control
[20] = Rate 500 g/ha, Pre-emergence, flood test species, scale 0 to 10 (0 no effect, 10 complete control)
[21] = Postemergence, Rate 125 g/ha, scale 0 to 10, 0 is no effect, 10 is complete control
[22] = Postemergence, Rate 250 g/ha, scale 0 to 10, 0 is no effect, 10 is complete control
[23] = Postemergence, Rate 500 g/ha, scale of 0 to 10 where 0 is no effect and 10 is complete control
[24] = Preemergence, Rate 62 g/ha, scale 0 to 10 (0 no effect, 10 complete control)
[25] = Preemergence, Rate 125 g/ha, scale of 0 to 10 where 0 is no effect and 10 is complete control
[26] = Preemergence, Rate 250 g/ha, scale 0 to 10, 0 is no effect, 10 is complete control
[27] = Preemergence, Rate 500 g/ha, scale 0 to 10, 0 is no effect, 10 is complete control
[28] = Rate 62 g/ha, Postemergence, scale of 0 to 10 where 0 is no effect and 10 is complete control
[29] = Preemergence, Rate 250 g/ha, scale of 0 to 10 where 0 is no effect and 10 is complete control

Cc1nc(Cl)sc1C(C)n1c(=O)on(C(=O)N(c2ccc(Cl)cc2)C(C)C)c1=O (stereo not shown) [Compound 406]
Plant response rating, Barnyardgrass (0 to 10 scale, 0 is no effect, 10 is complete control) [1, 17]: 0 | Barnyardgrass plant response rating (0 to 10 scale, 0 is no effect, 10 is complete control) [1, 18]: 0 | Barnyardgrass plant response rating [1, 19]: 0 | Barnyardgrass plant response rating [1, 20]: 0 | Plant response rating, Corn [2, 21]: 0 | Plant response rating, Corn [2, 22]: 0 | Corn plant response rating [2, 23]: 0 | Plant response rating, Corn [2, 24]: 0 | Plant response rating, Corn [2, 25]: 0 | Corn plant response rating [2, 26]: 0 | Corn plant response rating [2, 27]: 0 | Corn plant response rating [2, 28]: 0 | Plant response rating, Crabgrass [3, 21]: 0 | Plant response rating, Crabgrass [3, 22]: 0 | Crabgrass plant response rating [3, 23]: 0 | Plant response rating, Crabgrass [3, 24]: 0 | Plant response rating, Crabgrass [3, 25]: 0 | Crabgrass plant response rating [3, 26]: 2 | Crabgrass plant response rating [3, 27]: 6 | Crabgrass plant response rating [3, 28]: 0 | Plant response rating, Bedstraw ([4]; Rate 62 g/ha, scale 0 to 10 (0 no effect, 10 complete control)): 0 | Plant response rating, Bedstraw ([4]; Rate 125 g/ha, scale of 0 to 10 where 0 is no effect and 10 is complete control): 0 | Bedstraw plant response rating ([4]; Rate 250 g/ha, scale of 0 to 10 where 0 is no effect and 10 is complete control): 0 | Wild oats plant response rating [5, 23]: 0 | Plant response rating, Wild oats [5, 24]: 0 | Plant response rating, Wild oats [5, 25]: 0 | Wild oats plant response rating [5, 26]: 0 | Wild oats plant response rating [5, 27]: 0 | Plant response rating, Blackgrass [6, 21]: 0 | Plant response rating, Blackgrass [6, 22]: 0 | Blackgrass plant response rating [6, 23]: 0 | Plant response rating, Blackgrass [6, 24]: 0 | Plant response rating, Blackgrass [6, 25]: 0 | Blackgrass plant response rating [6, 29]: 0 | Blackgrass plant response rating [6, 27]: 0 | Blackgrass plant response rating [6, 28]: 0 | Plant response rating, B. signalgrass [7, 21]: 0 | Plant response rating, B. signalgrass [7, 22]: 0 | B. signalgrass plant response rating [7, 23]: 0 | Plant response rating, B. signalgrass [7, 24]: 0 | Plant response rating, B. signalgrass [7, 25]: 0 | B. signalgrass plant response rating [7, 29]: 0 | B. signalgrass plant response rating ([7]; Preemergence, Rate 500 g/ha, scale of 0 to 10 where 0 is no effect and 10 is complete control): 0 | B. signalgrass plant response rating [7, 28]: 0 | Plant response rating, Sugarbeets [8, 22]: 0 | Sugarbeets plant response rating [8, 23]: 0 | Plant response rating, Sugarbeets [8, 24]: 0 | Plant response rating, Sugarbeets [8, 25]: 0 | Sugarbeets plant response rating [8, 26]: 0 | Sugarbeets plant response rating [8, 27]: 0 | Plant response rating, Nutsedge [9, 22]: 0 | Nutsedge plant response rating [9, 23]: 0 | Plant response rating, Nutsedge [9, 24]: 0 | Plant response rating, Nutsedge [9, 25]: 0 | Nutsedge plant response rating [9, 26]: 0 | Nutsedge plant response rating [9, 27]: 0 | Plant response rating, Rape [10, 22]: 0 | Rape plant response rating [10, 23]: 0 | Plant response rating, Rape [10, 24]: 0 | Plant response rating, Rape [10, 25]: 0 | Rape plant response rating [10, 26]: 0 | Rape plant response rating [10, 27]: 0 | Plant response rating, Velvetleaf [11, 22]: 0 | Velvetleaf plant response rating [11, 23]: 0 | Plant response rating, Velvetleaf [11, 24]: 0 | Plant response rating, Velvetleaf [11, 25]: 0 | Velvetleaf plant response rating [11, 26]: 0 | Velvetleaf plant response rating [11, 27]: 0 | Plant response rating, Cocklebur [12, 21]: 0 | Plant response rating, Cocklebur [12, 22]: 0 | Cocklebur plant response rating [12, 23]: 0 | Plant response rating, Cocklebur [12, 24]: 0 | Plant response rating, Cocklebur [12, 25]: 0 | Cocklebur plant response rating [12, 26]: 0 | Cocklebur plant response rating [12, 27]: 0 | Cocklebur plant response rating [12, 28]: 0 | Wheat plant response rating [13, 23]: 0 | Plant response rating, Wheat [13, 24]: 0 | Plant response rating, Wheat [13, 25]: 0 | Wheat plant response rating [13, 26]: 0 | Wheat plant response rating [13, 27]: 0 | Plant response rating, S. Flatsedge (0 to 10 scale, 0 is no effect, 10 is complete control) [14, 17]: 0 | S. Flatsedge plant response rating (0 to 10 scale, 0 is no effect, 10 is complete control) [14, 18]: 0 | S. Flatsedge plant response rating [14, 19]: 0 | S. Flatsedge plant response rating [14, 20]: 0 | Plant response rating, Soybean [15, 22]: 2 | Soybean plant response rating [15, 23]: 2 | Plant response rating, Soybean [15, 24]: 0 | Plant response rating, Soybean [15, 25]: 0 | Soybean plant response rating [15, 26]: 0 | Soybean plant response rating [15, 27]: 0 | Plant response rating, Redroot pigweed [16, 22]: 0 | Redroot pigweed plant response rating [16, 23]: 0 | Plant response rating, Redroot pigweed [16, 24]: 0 | Plant response rating, Redroot pigweed [16, 25]: 0 | Redroot pigweed plant response rating [16, 26]: 0 | Redroot pigweed plant response rating [16, 27]: 0
